Target: T1, AlaRS G102R binding to GST-Nrp1 b1 (Homo sapiens, UniProt P49588, G102R)
T1 construct: made in house; host or cells: E. coli BL21 (DE3), pET-21a for AlaRS
T1 sequence (P49588 1-968 G102R): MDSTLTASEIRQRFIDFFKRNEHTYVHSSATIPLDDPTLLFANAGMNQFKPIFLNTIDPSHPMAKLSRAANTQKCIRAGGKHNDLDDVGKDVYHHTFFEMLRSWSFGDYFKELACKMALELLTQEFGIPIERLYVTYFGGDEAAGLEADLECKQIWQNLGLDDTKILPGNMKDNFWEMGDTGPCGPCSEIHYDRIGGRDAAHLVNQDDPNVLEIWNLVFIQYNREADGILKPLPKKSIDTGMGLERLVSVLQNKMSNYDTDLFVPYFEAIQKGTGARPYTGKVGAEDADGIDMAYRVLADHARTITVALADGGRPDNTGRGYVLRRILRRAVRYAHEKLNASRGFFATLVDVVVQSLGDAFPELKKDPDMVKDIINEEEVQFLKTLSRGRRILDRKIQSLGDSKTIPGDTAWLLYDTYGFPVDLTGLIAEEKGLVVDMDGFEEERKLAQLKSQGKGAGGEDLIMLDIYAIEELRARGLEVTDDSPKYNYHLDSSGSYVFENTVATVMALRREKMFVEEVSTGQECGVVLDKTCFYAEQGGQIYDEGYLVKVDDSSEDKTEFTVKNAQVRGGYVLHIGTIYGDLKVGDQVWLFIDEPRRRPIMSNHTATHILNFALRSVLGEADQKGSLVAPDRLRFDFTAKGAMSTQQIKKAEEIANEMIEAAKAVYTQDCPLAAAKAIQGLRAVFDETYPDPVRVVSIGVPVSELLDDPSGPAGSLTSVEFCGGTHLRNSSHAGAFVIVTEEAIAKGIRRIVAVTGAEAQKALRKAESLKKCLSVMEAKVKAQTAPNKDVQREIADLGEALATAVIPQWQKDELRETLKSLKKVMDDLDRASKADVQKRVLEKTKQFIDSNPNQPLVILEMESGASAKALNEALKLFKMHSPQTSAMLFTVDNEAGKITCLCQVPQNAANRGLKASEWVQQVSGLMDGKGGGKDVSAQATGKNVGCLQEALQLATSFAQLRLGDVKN
Assay: GST pull down assay
Conditions: 20 µM Tanshinone I, ImageJ, average of three repeats
Protocol: To further investigate whether Tanshinone I-induced conformational changes in AlaRS CMT mutants affect their interaction with Nrp1, Co-IP experiments were performed in cells treated with Tanshinone I. By comparing Co-IP results obtained before and after treatment, we assessed the influence of the drug on the binding strength and mode between the AlaRS CMT mutants and Nrp1. […] To confirm the direct effect of Tanshinone I on the interaction between AlaRS CMT mutants and Nrp1, pull-down experiments were performed. […] Given that the interaction between AlaRS mutants and Nrp1 is associated with disease progression in CMT, the ability of Tanshinone I to disrupt this binding highlights its potential to intervene in the pathogenic mechanisms of these diseases.
Figure 7 The impact of Tanshinone I on the interaction between AlaRS mutants and Nrp1. (A) Co-IP assays were conducted to assess the binding between HA-AlaRS mutants and Nrp1, both with and without treatment with 20 µM Tanshinone I for 24 h. […] (C) Pull down assay was performed to detect the binding between AlaRS mutants and GST-Nrp1 b1 with or without 20 µM Tanshinone I. (D) Relative quantification statistics of the AlaRS mutants pulled down from the GST pull down experiments after Tanshinone I treatment were performed using ImageJ. (E) The cell viability of 293T and NSC34 cells treated with different concentrations of Tanshinone I was assessed using the CCK-8 assay over a 24 h period. TEXT PRINTED IN THE PICTURE: (B) Tanshinone I: Mean density band (N71Y): 0.60; Mean density band (G102R): 0.53; Mean density band (R326W): 0.50; Mean density band (R329H): 0.50; Mean density band (E337K): 0.62 | (D) Tanshinone I: Mean density band (N71Y): 0.82; Mean density band (G102R): 0.76; Mean density band (R326W): 0.84; Mean density band (R329H): 0.84; Mean density band (E337K): 0.90
To detect the direct interactions between the mutant proteins and Nrp1 in vitro, we performed a Glutathione S-transferase (GST) pull-down assay. AlaRS mutants fused with 6 × His were purified with Ni-NTA beads, followed by chromatography on a HiTrap Q HP column. Nrp1 b1 fragments fused with GST were purified with Glutathione Beads (#SA008100, Smart-Lifesciences, Changzhou, China). For GST pull-down assays, 1000 μg of each GST-fused Nrp1 b1 fragment was mixed with 200 μg of 6 × His-tagged fusion protein in binding buffer (50 mM Tris-HCl pH 7.5, 20 mM NaCl, 5% glycerol, 5 mM DTT with 0.1% BSA) at 4 °C overnight. The mixture was next incubated with 30 μL glutathione beads at 4 °C with constant rotation for 2–4 h. Subsequently, the bead/protein complex was washed three times, and eluted with 30 μL 2 × SDS sample buffer. The samples were then subjected to SDS-PAGE analysis. The experiment was repeated three times.

Mean density band (G102R), relative quantification of AlaRS mutant pulled down: 0.76
SMILES: Cc1coc2c1C(=O)C(=O)c1c-2ccc2c(C)cccc12 [Tanshinone I]
